From PubChem BioAssay (NCI)
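Five compound concentrations were applied to cells in 96-well plates for 48 hours; endpoints were derived by simple linear interpolation of the resulting dose-response curve. Definition used: TGI = concentration required for complete inhibition of growth.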

Columns and labels:
Test in all cases: inhibition of tumour cell growth, NCI panel, 48 h
786-0 renal = test system: 786-0 renal
A549 NSCLC = test system: A549 NSCLC
ACHN renal = test system: ACHN renal
CAKI-1 renal = test system: CAKI-1 renal
CCRF-CEM leukemia = test system: CCRF-CEM leukemia
COLO 205 colon = test system: COLO 205 colon
DLD-1 colon = test system: DLD-1 colon
DMS 114 small cell lung = test system: DMS 114 small cell lung
DMS 273 small cell lung = test system: DMS 273 small cell lung
EKVX NSCLC = test system: EKVX NSCLC
HCC-2998 colon = test system: HCC-2998 colon
HCT-116 colon = test system: HCT-116 colon
HCT-15 colon = test system: HCT-15 colon
HL-60(TB) leukemia = test system: HL-60(TB) leukemia
HOP-18 NSCLC = test system: HOP-18 NSCLC
HOP-62 NSCLC = test system: HOP-62 NSCLC
HT29 colon = test system: HT29 colon
K-562 leukemia = test system: K-562 leukemia
KM12 colon = test system: KM12 colon
LOX IMVI melanoma = test system: LOX IMVI melanoma
M14 melanoma = test system: M14 melanoma
M19-MEL melanoma = test system: M19-MEL melanoma
MALME-3M melanoma = test system: MALME-3M melanoma
MOLT-4 leukemia = test system: MOLT-4 leukemia
NCI-H226 lung = test system: NCI-H226 lung
NCI-H23 lung = test system: NCI-H23 lung
NCI-H460 lung = test system: NCI-H460 lung
OVCAR-3 ovarian = test system: OVCAR-3 ovarian
OVCAR-4 ovarian = test system: OVCAR-4 ovarian
OVCAR-5 ovarian = test system: OVCAR-5 ovarian
OVCAR-8 ovarian = test system: OVCAR-8 ovarian
RPMI-8226 leukemia = test system: RPMI-8226 leukemia
SF-268 CNS = test system: SF-268 CNS
SF-295 CNS = test system: SF-295 CNS
SF-539 CNS = test system: SF-539 CNS
SK-MEL-2 melanoma = test system: SK-MEL-2 melanoma
SK-MEL-28 melanoma = test system: SK-MEL-28 melanoma
SK-MEL-5 melanoma = test system: SK-MEL-5 melanoma
SN12C renal = test system: SN12C renal
SNB-19 CNS = test system: SNB-19 CNS
SNB-75 CNS = test system: SNB-75 CNS
SNB-78 CNS = test system: SNB-78 CNS
SR leukemia = test system: SR leukemia
SW-620 colon = test system: SW-620 colon
TK-10 renal = test system: TK-10 renal
UACC-257 melanoma = test system: UACC-257 melanoma
UO-31 renal = test system: UO-31 renal
XF 498 CNS = test system: XF 498 CNS
A498 renal = test system: A498 renal
HOP-92 NSCLC = test system: HOP-92 NSCLC
IGROV1 ovarian = test system: IGROV1 ovarian
KM20L2 colon = test system: KM20L2 colon
LXFL 529 NSCLC = test system: LXFL 529 NSCLC
NCI-H522 lung = test system: NCI-H522 lung
RXF 393 renal = test system: RXF 393 renal
SK-OV-3 ovarian = test system: SK-OV-3 ovarian
U251 CNS = test system: U251 CNS
UACC-62 melanoma = test system: UACC-62 melanoma

Measured: TGI

Cc1cc([N+](=O)[O-])c(C)c2c1[nH]c1ccc(O)cc12
63 µM: HL-60(TB) leukemia
79 µM: RPMI-8226 leukemia
43.7 µM: DLD-1 colon
not listed: A498 renal | HOP-92 NSCLC | IGROV1 ovarian | KM20L2 colon | LXFL 529 NSCLC | NCI-H522 lung | RXF 393 renal | SK-OV-3 ovarian | U251 CNS | UACC-62 melanoma
> 100 µM: all other assays above

CCSc1nc(-c2ccc(OC)cc2)c(C#N)c(=O)n1C1OCC(OC(C)=O)C(OC(C)=O)C1OC(C)=O (stereo not given)
not listed: CCRF-CEM leukemia | HL-60(TB) leukemia | LOX IMVI melanoma | OVCAR-3 ovarian | OVCAR-8 ovarian | XF 498 CNS
> 100 µM: all other assays above
